Source: US8299089B2, “Multi-arm polymeric conjugates of 7-ethyl-10-hydroxycamptothecin for treatment of breast, colorectal, pancreatic, ovarian and lung cancers” (priority 2006, dated 2012)

Legend:
Colo 205 = test: In vitro cytotoxicity, MTS assay, Colo 205; assay type: cell-based
Procedure: (§1) In Table 2, the cytotoxicity (μM of each compound that results in an IC50) provides an indication of the in vitro anti-tumor potency of each compound. This study was used to determine the effect of PEGylation of four-arm PEGylated 7-ethyl-10-hydroxycamptothecin conjugates. […] Cells were incubated with drugs for 72 hours at 37° C. Following incubation, MTS dye was added and formation of a colored product (formazan) was measured at 490 nm.

HT29 = test: In vitro cytotoxicity, MTS assay, HT29; assay type: cell-based
Procedure: as §1

A549 = test: In vitro cytotoxicity, MTS assay, A549; assay type: cell-based
Procedure: as §1

PANC-1 = test: In vitro cytotoxicity, MTS assay, PANC-1; assay type: cell-based
Procedure: as §1

MIA PaCa-2 = test: In vitro cytotoxicity, MTS assay, MIA PaCa-2; assay type: cell-based
Procedure: as §1

ASPC-1 = test: In vitro cytotoxicity, MTS assay, ASPC-1; assay type: cell-based
Procedure: as §1

BxPC-3 = test: In vitro cytotoxicity, MTS assay, BxPC-3; assay type: cell-based
Procedure: as §1

OVCAR-3 = test: In vitro cytotoxicity, MTS assay, OVCAR-3; assay type: cell-based
Procedure: as §1

OV90 = test: In vitro cytotoxicity, MTS assay, OV90; assay type: cell-based
Procedure: as §1

OVCAR-8 = test: In vitro cytotoxicity, MTS assay, OVCAR-8; assay type: cell-based
Procedure: as §1

A2780 = test: In vitro cytotoxicity, MTS assay, A2780; assay type: cell-based
Procedure: as §1

SK-0V-3 = test: In vitro cytotoxicity, MTS assay, SK-0V-3; assay type: cell-based
Procedure: as §1

[1] = Solubility in aqueous saline solution; assay type: physicochemical
[2] = Maximum tolerated dose (MTD) in nude mice; details: mouse, in vivo
Excerpt: Mice were monitored for 14 days for mortality and signs of illness and sacrificed when body weight loss was >20% of the pretreatment body weight.

[3] = test system: human mammary carcinoma (MX-1); test: Single dose efficacy in MX-1 breast tumor xenograft mouse model; assay type: in vivo, nude mice; details: day 31
Procedure: Following at least one week of acclimation, tumors were established by implanting small tumor fragments from donor mice into a single subcutaneous site, on the left auxiliary flank region of nude mice. The tumor implantation site was observed twice weekly and measured once palpable. The tumor volume for each mouse was determined by measuring two dimensions with calipers and calculated using the formula: tumor volume=(length×width^2). […] Drugs were administered intravenously via the tail vein as a single dose of 20 mg/kg body weight of a mouse. […] Mouse weight and tumor sizes were measured at the beginning of study and on the 31st day after the single dose administration.
The overall growth of tumors was calculated as the mean tumor volume (TV). A percent treatment over control (T/C) was also calculated. The percentage of tumor regression indicates the in vivo activity of each compound.

[4] = test system: human mammary carcinoma (MX-1); test: Multiple dose efficacy in MX-1 breast tumor xenograft mouse model; assay type: in vivo, nude mice; details: i.v. 5 mg/kg/dose (q2d×6), day 31
Procedure: The mice were dosed 5 mg/kg/day […] (every 2 days [q×2d]×6). Mouse weight and tumor sizes were monitored up to the 31st day after the first dose administration and subsequent administrations.

[5] = test system: human mammary, MX-1 tumors; test: Efficacy in small and large MX-1 breast tumor xenografted mice; assay type: in vivo, nude mice
Procedure: The antitumor efficacy of 4armPEG-Gly-(7-ethyl-10-hydroxycamptothecin) was evaluated in nude mice bearing small (about 100 mm^3) or large (about 450 mm^3) established human mammary, MX-1 tumors. The antitumor therapeutic activities were determined in mice both with a single dose or multiple dose regimens.
Four of six mice were cured as of day 54. […] All animals were sacrificed by day 20 due to excessive tumor burden.

[6] = test system: MiaPaCa-2 pancreatic tumor cells; test: Efficacy in MiaPaCa-2 pancreatic tumor xenograft mice; assay type: in vivo
[7] = test system: HT-29 colorectal tumor cells; test: Efficacy in HT-29 colorectal tumor xenograft mice; details: during the treatment
[8] = Hydrolysis / 7-ethyl-10-hydroxycamptothecin release in human plasma; assay type: in vitro ADME; details: for Doubling Time in Plasma, Human: 7-ethyl-10-hydroxycamptothecin formation rate from conjugates; for t1/2 in Human Plasma: PEG conjugate half life
Excerpt: The aqueous stability and hydrolysis properties in rat and human plasma were monitored using UV based HPLC methods.

[9] = 7-ethyl-10-hydroxycamptothecin release in mouse plasma; assay type: in vitro ADME; details: 7-ethyl-10-hydroxycamptothecin formation rate from conjugates
[10] = 7-ethyl-10-hydroxycamptothecin release in rat plasma; assay type: in vitro ADME; details: 7-ethyl-10-hydroxycamptothecin formation rate from conjugates

## CCc1c2c(nc3ccc(O)cc13)-c1cc3c(c(=O)n1C2)COC(=O)[C@]3(O)CC [7-ethyl-10-hydroxycamptothecin]
Colo 205; Table 2, Colo 205, 72 hours, Compound 9 in 7-ethyl-10-hydroxycamptothecin equivalents, average ± SD (n = 3)
  IC50: 200 ± 200 nM
Colo 205; Table 3, Colo 205 (colorectal)
  IC50: 80 nM
HT29; Table 2, HT29, 72 hours, Compound 9 in 7-ethyl-10-hydroxycamptothecin equivalents, average ± SD (n = 3)
  IC50: 100 ± 40 nM
HT29; Table 3, HT29 (colorectal)
  IC50: 80 nM
A549; Table 2, A549, 72 hours, Compound 9 in 7-ethyl-10-hydroxycamptothecin equivalents, average ± SD (n = 3)
  IC50: 1000 ± 100 nM
PANC-1; Table 2, PANC-1, 72 hours, Compound 9 in 7-ethyl-10-hydroxycamptothecin equivalents, average ± SD (n = 3)
  IC50: 560 ± 380 nM
MIA PaCa-2; Table 2, MIA PaCa-2, 72 hours, Compound 9 in 7-ethyl-10-hydroxycamptothecin equivalents, no SD = average of two replicates
  IC50: 180 nM
ASPC-1; Table 2, ASPC-1, 72 hours, Compound 9 in 7-ethyl-10-hydroxycamptothecin equivalents, average ± SD (n = 3)
  IC50: 640 ± 130 nM
BxPC-3; Table 2, BxPC-3, 72 hours, Compound 9 in 7-ethyl-10-hydroxycamptothecin equivalents, average ± SD (n = 3)
  IC50: 540 ± 580 nM
OVCAR-3; Table 2, OVCAR-3, 72 hours, Compound 9 in 7-ethyl-10-hydroxycamptothecin equivalents, average ± SD (n = 3)
  IC50: 100 ± 20 nM
OV90; Table 2, OV90, 72 hours, Compound 9 in 7-ethyl-10-hydroxycamptothecin equivalents, average ± SD (n = 3)
  IC50: 100 ± 20 nM
OVCAR-8; Table 2, OVCAR-8, 72 hours, Compound 9 in 7-ethyl-10-hydroxycamptothecin equivalents, average ± SD (n = 3)
  IC50: 30 ± 10 nM
A2780; Table 2, A2780, 72 hours, Compound 9 in 7-ethyl-10-hydroxycamptothecin equivalents, average ± SD (n = 3)
  IC50: 20 ± 10 nM
SK-0V-3; Table 2, SK-0V-3, 72 hours, Compound 9 in 7-ethyl-10-hydroxycamptothecin equivalents, average ± SD (n = 3)
  IC50: 200 ± 100 nM
[1]
  Solubility in Saline: ^a7-ethyl-10-hydroxycamptothecin is not soluble in saline.

## CCc1c2c(nc3ccc(OC(=O)N4CCC(N5CCCCC5)CC4)cc13)-c1cc3c(c(=O)n1C2)COC(=O)[C@]3(O)CC [CPT-11, Irinotecan, reference compound]
[2]; multiple dose (q2d×5)
  MTD at 14 days: 40 mg/kg
[2]; single dose
  MTD at 14 days: 80 mg/kg
Colo 205; Homo sapiens, COLO 205
  IC50: 20000 nM
Colo 205; Homo sapiens, COLO 205, 72 h
  IC50: 11000 ± 1400 nM
HT29; Homo sapiens, HT-29, 72 h
  IC50: 27000 ± 8600 nM
HT29; Homo sapiens, HT-29, Table 3, HT29 (colorectal)
  IC50: 56000 nM
A549; Homo sapiens, A549, 72 h
  IC50: 67000 ± 17000 nM
A549; Homo sapiens, Table 3, A549 (lung)
  IC50: 13000 nM
PANC-1; Homo sapiens, PANC-1, 72 h
  IC50: 34000 ± 16000 nM
MIA PaCa-2; Homo sapiens, MIA PaCa-2, 72 h
  IC50: 67000 ± 46000 nM
ASPC-1; Homo sapiens, ASPC1, 72 h
  IC50: 33000 ± 1000 nM
BxPC-3; Homo sapiens, BXPC-3, 72 h
  IC50: 44000 ± 44000 nM
OVCAR-3; Homo sapiens, OVCAR-3, 72 h
  IC50: 20000 ± 7100 nM
OVCAR-3; Homo sapiens, Table 3, OVCAR-3 (ovarian)
  IC50: 41000 nM
OV90; Homo sapiens, OV-90, 72 h
  IC50: 18000 ± 4800 nM
OVCAR-8; Homo sapiens, OVCAR-8, 72 h
  IC50: 9000 ± 1300 nM
A2780; Homo sapiens, A2780, 72 h
  IC50: 8000 ± 3500 nM
SK-0V-3; 72 h
  IC50: 52000 ± 8500 nM
[3]; single dose i.v. 20 mg/kg (conjugate as 7-ethyl-10-hydroxycamptothecin equivalent)
  Mean TV ± SD: 845 ± 50 mm^3
[3]; single dose i.v. 20 mg/kg
  Cures: 0%
  F/I: 843%
  Median TV: 845 mm^3
  Regressions: 0%
  Survival: 0%
  T/C: 108%
  TGI: 26%
[4]
  Chg in TV ± SD: 423 ± 243%
  Cures: 0%
  F/I: 594%
  Mean TV ± SD: 632 ± 698 mm^3
  Median TV: 340 mm^3
  Regressions: 0%
  Survival: 0%
  T/C: 43%
  TGI: 44%
[5]; given at the MTD, for the duration of the treatment
  effect on body weight: did not significantly decrease the body weight
[5]; large tumors, 10 mg/kg q2d×5
  tumor growth inhibition: effective TGI until treatment was discontinued, after which tumors regrew
[5]; large tumors, 40 mg/kg q2d×5, after ~5 weeks
  mice in which tumors regrew: four of the six
[5]; large tumors, multiple doses at MTD 40 mg/kg q2d×5, as of day 13
  TGI: ~95%
[5]; large tumors, single MTD 80 mg/kg, day 13
  TGI: 70%
[5]; small tumors (about 100 mm^3), multiple doses 20 mg/kg q2d×5, as of day 31
  TGI: 44%
[5]; small tumors (about 100 mm^3), single dose 20 mg/kg
  TGI: did not inhibit tumor growth
[6]; multiple doses i.v. (10 mg/kg/dose for five days; CPT-11 also 40 mg/kg/dose)
  TGI: 34%
[6]; single dose i.v. (30 mg/kg; CPT-11 also 80 mg/kg)
  TGI: 0%
[7]
  effect on body weight: did not significantly decrease the body of weight

## ^40K4arm-PEG-Sar-(20)-(7-ethyl-10-hydroxycamptothecin) [Compound 23]
Colo 205; Table 3, Colo 205 (colorectal)
  IC50: 40 nM
HT29; Table 3, HT29 (colorectal)
  IC50: 270 nM
A549; Table 3, A549 (lung)
  IC50: 11000 nM
OVCAR-3; Table 3, OVCAR-3 (ovarian)
  IC50: 170 nM
[4]
  Chg in TV ± SD: −87 ± 12%
  Cures: 100%
  F/I: 13%
  Mean TV ± SD: 12 ± 10 mm^3
  Median TV: 14.6 mm^3
  Regressions: 100%
  Survival: 100%
  T/C: 1.9%
  TGI: 99%
[8]
  Doubling Time in Plasma, Human: 28.8 min
  t1/2 in Human Plasma: 19.0 min
[9]
  Doubling Time in Plasma, Mouse: 43.4 min
[10]
  Doubling Time in Plasma, Rat: 481 min

## ^40k4arm-PEG-Met-(20)-(7-ethyl-10-hydroxycamptothecin) [Compound 18]
Colo 205; Table 3, Colo 205 (colorectal)
  IC50: 30 nM
HT29; Table 3, HT29 (colorectal)
  IC50: 140 nM
A549; Table 3, A549 (lung)
  IC50: 1600 nM
OVCAR-3; Table 3, OVCAR-3 (ovarian)
  IC50: 130 nM
[4]
  Chg in TV ± SD: −94 ± 7%
  Cures: 100%
  F/I: 7.8%
  Mean TV ± SD: 8 ± 9 mm^3
  Median TV: 5.6 mm^3
  Regressions: 100%
  Survival: 100%
  T/C: 0.7%
  TGI: 99%
[1]
  Solubility in Saline: 142 mg/mL
[8]
  Doubling Time in Plasma, Human: 22.2 min
  t1/2 in Human Plasma: 26.8 min
[9]
  Doubling Time in Plasma, Mouse: 41.9 min
[10]
  Doubling Time in Plasma, Rat: 1920 min

## ^40k4arm-PEG-Ala-(20)-(7-ethyl-10-hydroxycamptothecin) [Compound 12]
Colo 205; Table 3, Colo 205 (colorectal)
  IC50: 30 nM
HT29; Table 3, HT29 (colorectal)
  IC50: 160 nM
A549; Table 3, A549 (lung)
  IC50: 4400 nM
OVCAR-3; Table 3, OVCAR-3 (ovarian)
  IC50: 140 nM
[4]
  Chg in TV ± SD: −91 ± 11%
  Cures: 67%
  F/I: 10%
  Mean TV ± SD: 10 ± 11 mm^3
  Median TV: 9.6 mm^3
  Regressions: 100%
  Survival: 100%
  T/C: 1.2%
  TGI: 99%
[1]
  Solubility in Saline: 121 mg/mL
[8]
  Doubling Time in Plasma, Human: 51.9 min
  t1/2 in Human Plasma: 12.5 min
[9]
  Doubling Time in Plasma, Mouse: 45.8 min
[10]
  Doubling Time in Plasma, Rat: 753 min
